Consider six compounds from PMC8701318, “LC-QTOF-MS/MS Based Molecular Networking Approach for the Isolation of α-Glucosidase Inhibitors and Virucidal Agents from Coccinia grandis (L.) Voigt” (Foods, 2021).

The target in data set [1] is α-Glucosidase enzyme (Saccharomyces cerevisiae). Kind of data set: In-vitro α-glucosidase inhibitory assay (p-NPG substrate). To be noted: read-out: α-Glucosidase Inhibitory Activity, IC50; mean ± s.d. of a triplicate experiment.
Description: The α-glucosidase assay was performed as described by Liu et al. [21] with slight modification. The reaction mixture consisting of 50 µL of potassium phosphate buffer (PBS, 0.1 M, pH 6.8) and 20 µL of α-glucosidase (0.5 U/mL) was pre-incubated with 20 µL of the test sample at 37 °C for 15 min in a 96-well plate. The mixture was added 20 µL p-NPG (1 mM) and incubated again at 37 °C for 15 min. A total of 50 µL of Na2CO3 (0.2 M) was added to terminate the enzymatic activity. The absorbance value of each well was measured immediately using a microplate reader at 405 nm. […] All glycosides were dissolved in 50% DMSO, while a crude extract was dissolved in 100% DMSO. The experiment was performed in triplicate. The enzyme inhibition rate was calculated as follows:(1) [1−(ODsample−ODsample blank)/(ODcontrol−ODblank)] × 100 where ODsample represents the absorbance of PBS + enzyme + sample + p-NPG; ODsample blank represents the absorbance of PBS + sample; ODcontrol represents the absorbance of PBS + enzyme + solvent + p-NPG; ODblank represents the absorbance of PBS + solvent. The inhibitory activity is expressed as IC50 (half minimal inhibitory concentration) value. Data were normalized, and the IC50 values were calculated using GraphPad Prism 9.2.0.
Data set [2] deals with hippocampal neural progenitor cells. The arrangement: method as in PMID 19326568. To be noted: possibly via the 5-HT1A receptor; cited from earlier work.
On the set-up of data set [3]: method as in earlier work. Particulars: isolated from cottonseeds; cited from earlier work.
For data set [4] the following is noted: mice model; cited from earlier work.
Data set [5] in a line: Cytotoxicity in MDCK cells by the MTT assay. To be noted: dog.
In data set [6] the test system is influenza A virus H1N1. Kind of data set: Virucidal activity, ASTM E1053-20 method. It is filed as cell-based. To be noted: for Virucidal Activity Log Reduction: 10 min exposure.
In data set [7] the test system is hepatitis C virus. More on the design: method as in PMID 28638096. Particulars: cited from earlier work.
Data set [8] deals with α-glucosidase. More on the design: method as in PMID 24125526. To be noted: isolated from leaves of Morus atropurpurea; cited from earlier work.
The test system of data set [9] is dengue virus serine protease. The arrangement: method as in PMID 32107969. To be noted: cited from earlier work.

Structures are written as SMILES.

As to `C[C@@H]1O[C@@H](OC[C@H]2O[C@@H](Oc3c(-c4ccc(O)cc4)oc4cc(O)cc(O)c4c3=O)[C@H](O[C@@H]3OCC(O)(CO)[C@H]3O)[C@@H](O)[C@H]2O)[C@H](O)[C@H](O)[C@H]1O` (stereo partly drawn) [Compound 7, kaempferol 3-O-β-D-apiofuranosyl-(1→2)-[α-L-rhamnopyranosyl-(1→6)]-β-D-galactopyranoside], the IC50 in data set [1] was determined as 432 ± 18.9 µM.

As to `C[C@@H]1O[C@@H](OC[C@H]2O[C@@H](Oc3c(-c4ccc(O)c(O)c4)oc4cc(O)cc(O)c4c3=O)[C@H](O[C@@H]3OCC(O)(CO)[C@H]3O)[C@@H](O)[C@@H]2O)[C@H](O)[C@H](O)[C@H]1O` (stereo partly drawn) [Compound 5, quercetin 3-O-β-D-apiofuranosyl-(1→2)-[α-L-rhamnopyranosyl-(1→6)]-β-D-glucopyranoside], in data set [2], the “proliferation of hippocampal neural progenitor cells (in words)” value was “could enhance the proliferation”. In data set [3], the “antidepressant and cytoprotective effects (in words)” value is “antidepressant and cytoprotective effects”. Besides, the “absorption and tissue distribution (in words)” value in data set [4] is “could be absorbed and distributed into tissues”. Also, in data set [1], the IC50 was found to be 431 ± 17.6 µM. In data set [5], this compound returned a viability at 15.6 µg/mL of 95.8 ± 4.22%, a viability at 31.3 µg/mL of 94.1 ± 1.85%, a viability at 62.5 µg/mL of 90 ± 3.08% and a viability at 125 µg/mL of 85.8 ± 2.87%. Moreover, in [5], the viability at 250 µg/mL was found to be 83.7 ± 1.2% and the viability at 500 µg/mL was determined as 82.9 ± 2.06%. In addition, the “Virucidal Activity Log Reduction” value in data set [6] (15.6 µg/mL) was found to be 1.87 ± 0.072 Log. For the same compound, the “Virucidal Activity Log Reduction” value in data set [6] (31.3 µg/mL) is recorded as 1.84 ± 0.108 Log. The “Virucidal Activity Log Reduction” value in data set [6] (62.5 µg/mL) turned out to be 1.90 ± 0.062 Log. Moreover, the “Virucidal Activity Log Reduction” value in data set [6] (125.0 µg/mL) was 1.97 ± 0.088 Log. Besides, the “Virucidal Activity Log Reduction” value in data set [6] (250.0 µg/mL) was determined as 2.01 ± 0.239 Log. Besides, the “Virucidal Activity Log Reduction” value in data set [6] (500.0 µg/mL) was 2.11 ± 0.198 Log. In data set [6] (500.0 and 250.0 µg/mL), the reduction of virus is recorded as 99% and the “virucidal Log reduction” value is given as 1.93–2.41 Log.

Regarding `C[C@@H]1O[C@@H](OC[C@H]2O[C@@H](Oc3c(-c4ccc(O)cc4)oc4cc(O)cc(O)c4c3=O)[C@H](O)[C@@H](O)[C@H]2O)[C@H](O)[C@H](O)[C@H]1O` [Compound 3, kaempferol 3-O-alpha-L-rhamnopyranosyl-(1→6)-beta-D-galactopyranoside], the IC50 in data set [1] amounted to 195 ± 18.1 µM. For the same compound, in data set [5], the viability at 3.9 µg/mL came out at 95.6 ± 6.25%, the viability at 7.8 µg/mL was 92.8 ± 4.84%, the viability at 15.6 µg/mL was 89.7 ± 0.82% and the viability at 31.3 µg/mL stood at 88.7 ± 0.21%. In data set [5], this compound had a viability at 62.5 µg/mL of 83.6 ± 0.74% and a viability at 125 µg/mL of 73.3 ± 0.9%. In data set [6] (3.9 µg/mL), the “Virucidal Activity Log Reduction” value was 1.63 ± 0.069 Log. The “Virucidal Activity Log Reduction” value in data set [6] (7.8 µg/mL) was 1.66 ± 0.071 Log. Moreover, the “Virucidal Activity Log Reduction” value in [6] (15.6 µg/mL) amounted to 1.91 ± 0.062 Log. Moreover, the “Virucidal Activity Log Reduction” value in [6] (31.3 µg/mL) is 1.95 ± 0.124 Log. Also, the “Virucidal Activity Log Reduction” value in [6] (62.5 µg/mL) came out at 1.91 ± 0.062 Log. Also, in data set [6] (125.0 µg/mL), the “Virucidal Activity Log Reduction” value came to 1.98 ± 0.088 Log. Besides, in data set [6] (31.3 and 15.6 µg/mL), the reduction of virus amounted to 99% and the “virucidal Log reduction” value is listed as “around 1.9 Log”.

On to `C[C@@H]1O[C@@H](OC[C@H]2O[C@@H](Oc3c(-c4ccc(O)cc4)oc4cc(O)cc(O)c4c3=O)[C@H](O[C@@H]3OCC(O)(CO)[C@H]3O)[C@@H](O)[C@@H]2O)[C@H](O)[C@H](O)[C@H]1O` (stereo partly drawn) [Compound 6, kaempferol 3-O-β-D-apiofuranosyl-(1→2)-[α-L-rhamnopyranosyl-(1→6)]-β-D-glucopyranoside], for which the IC50 in [1] worked out at 456 ± 26 µM. In data set [5], the viability at 15.6 µg/mL worked out at 97 ± 2.99%, the viability at 31.3 µg/mL worked out at 95.7 ± 1.63%, the viability at 62.5 µg/mL was 93.7 ± 4.87% and the viability at 125 µg/mL came to 89.5 ± 0.83%. In [5], this compound yielded a viability at 250 µg/mL of 88.6 ± 0.43% and a viability at 500 µg/mL of 86.4 ± 2.06%. Moreover, the “Virucidal Activity Log Reduction” value in data set [6] (15.6 µg/mL) is reported as 1.93 ± 0.124 Log. For the same compound, the “Virucidal Activity Log Reduction” value in [6] (31.3 µg/mL) came out at 1.93 ± 0.124 Log. Also, the “Virucidal Activity Log Reduction” value in [6] (62.5 µg/mL) is given as 1.93 ± 0.124 Log. Further, the “Virucidal Activity Log Reduction” value in data set [6] (125.0 µg/mL) is listed as 1.93 ± 0.124 Log. For the same compound, in data set [6] (250.0 µg/mL), the “Virucidal Activity Log Reduction” value is on record as 1.93 ± 0.124 Log. Moreover, in data set [6] (500.0 µg/mL), the “Virucidal Activity Log Reduction” value is 1.97 ± 0.042 Log. Besides, in data set [6] (500.0 and 250.0 µg/mL), the reduction of virus turned out to be 99% and the “virucidal Log reduction” value was 1.93–2.41 Log.

As to `C[C@@H]1O[C@@H](OC[C@H]2O[C@@H](Oc3c(-c4ccc(O)c(O)c4)oc4cc(O)cc(O)c4c3=O)[C@H](O)[C@@H](O)[C@@H]2O)[C@H](O)[C@H](O)[C@H]1O` [Compound 1, rutin], the “hepatitis C virus entry inhibition (in words)” value in [7] is “potent hepatitis C virus entry inhibitor”. The IC50 in data set [1] was found to be 243 ± 5.29 µM. In addition, in data set [8], the “α-glucosidase inhibitory activity (in words)” value is recorded as “α-glucosidase inhibitory activity”. Besides, in data set [5], the viability at 3.9 µg/mL came to 99.3 ± 3.45%, the viability at 7.8 µg/mL was 97.8 ± 0.31%, the viability at 15.6 µg/mL worked out at 94.7 ± 3.93% and the viability at 31.3 µg/mL was found to be 86.5 ± 2.16%. Further, in [5], the viability at 62.5 µg/mL came to 83.8 ± 2.02% and the viability at 125 µg/mL was found to be 77.2 ± 1.28%. In data set [6] (3.9 µg/mL), the “Virucidal Activity Log Reduction” value was 1.20 ± 0.025 Log. In data set [6] (7.8 µg/mL), the “Virucidal Activity Log Reduction” value is 1.32 ± 0.032 Log. Besides, the “Virucidal Activity Log Reduction” value in [6] (15.6 µg/mL) is 1.34 ± 0.044 Log. Besides, the “Virucidal Activity Log Reduction” value in data set [6] (31.3 µg/mL) came out at 1.34 ± 0.030 Log. Besides, the “Virucidal Activity Log Reduction” value in data set [6] (62.5 µg/mL) is on record as 1.52 ± 0.045 Log. Also, in data set [6] (125.0 µg/mL), the “Virucidal Activity Log Reduction” value was 1.80 ± 0.105 Log.

In the case of `C[C@@H]1O[C@@H](OC[C@H]2O[C@@H](Oc3c(-c4ccc(O)cc4)oc4cc(O)cc(O)c4c3=O)[C@H](O)[C@@H](O)[C@@H]2O)[C@H](O)[C@H](O)[C@H]1O` [Compound 2, kaempferol 3-O-rutinoside], the IC50 in data set [1] turned out to be 236 ± 27.7 µM. Further, the “inhibition of dengue virus serine protease (in words)” value in data set [9] is “strong inhibition”. For the same compound, in data set [8], the “α-glucosidase inhibitory activity (in words)” value is on record as “α-glucosidase inhibitory activity”. This compound displayed a viability at 3.9 µg/mL in [5] of 98.1 ± 1.34%. The same compound showed a viability at 7.8 µg/mL in data set [5] of 96.3 ± 5.13%. In data set [5], the viability at 15.6 µg/mL was determined as 92.3 ± 1.95%. The same compound registered a viability at 31.3 µg/mL in [5] of 88.5 ± 2.67%. The viability at 62.5 µg/mL in data set [5] is 86.5 ± 3.82%. In addition, the viability at 125 µg/mL in data set [5] turned out to be 78 ± 1.75%. In addition, the “Virucidal Activity Log Reduction” value stood at 1.66 ± 0.071 Log in data set [6] (3.9 µg/mL); 1.65 ± 0.084 Log in data set [6] (7.8 µg/mL); 1.66 ± 0.071 Log in data set [6] (15.6 µg/mL); 1.68 ± 0.046 Log in [6] (31.3 µg/mL); 1.82 ± 0.091 Log in data set [6] (62.5 µg/mL); 1.95 ± 0.124 Log in data set [6] (125.0 µg/mL).
